Here are results for 16 compounds from ChEMBL document CHEMBL4393689, “Discovery of fluorescent coumarin-benzo[b]thiophene 1, 1-dioxide conjugates as mitochondria-targeting antitumor STAT3 inhibitors” (Eur J Med Chem, 2019).

SMILES strings stand for the structures. pIC50: −log10 of the molar value. Calls of active or inactive are those of the source. No cut-off for these calls is given here.

In data set [1] the test system is MDA-MB-231. Description: Antiproliferative activity against human MDA-MB-231 cells assessed as reduction in cell viability incubated for 48 hrs by MTT assay. In kind it is functional, cell-based. The following applies: MDA-MB-231, 48 h. (Tetrazolium assays rely on reduction of a dye to a coloured formazan, in cell work by metabolically active cells.)
For a further data set, the system named is MCF7. Description: Antiproliferative activity against human MCF7 cells assessed as reduction in cell viability incubated for 48 hrs by MTT assay. The format is functional, cell-based. The following applies: MCF7, 48 h.
A further data set concerns HCT-116. Description: Antiproliferative activity against human HCT116 cells assessed as reduction in cell viability incubated for 48 hrs by MTT assay. The format is functional, cell-based. The following applies: HCT-116, 48 h.
A further data set concerns HepG2. Description: Antiproliferative activity against human HepG2 cells assessed as reduction in cell viability incubated for 48 hrs by MTT assay. In kind it is functional, cell-based. The following applies: HepG2, 48 h.
Data set [2] relates to MDA-MB-231. Description: Induction of apoptosis in human MDA-MB-231 cells assessed as increase in cleaved PARP levels at 4 uM incubated for 24 hrs by Western blot analysis. In kind it is functional, cell-based.
Another data set concerns L02. Description: Cytotoxicity against human LO2 cells assessed as reduction in cell viability incubated for 48 hrs by MTT assay. The format is cell-based. The following applies: L02, 48 h.
Data set [3] has as its target Signal transducer and activator of transcription 3 (Homo sapiens) (UniProt P40763). Description: Inhibition of STAT3 in human MDA-MB-231 cells assessed as decrease in STAT3-DNA binding at 4 uM incubated for 24 hrs by electrophoretic mobility shift assay. The format is cell-based. In general terms: A gel shift assay detects complexes by their altered migration in electrophoresis.

Data set [4] deals with MDA-MB-231. Description: Induction of apoptosis in human MDA-MB-231 cells assessed as increase in cleaved caspase-3 levels at 4 uM incubated for 24 hrs by Western blot analysis. The format is functional, cell-based. A general note: A western blot detects proteins with antibodies after separation by electrophoresis.
The nature of data set [5]: Selectivity index, ratio of IC50 for human L02 cells to IC50 for human HepG2 cells. In kind it is toxicity. The following applies: L02 cells versus HepG2 cells, read-out: Ratio IC50.
Data set [6] can be described thus: Selectivity index, ratio of IC50 for human MCF10A cells to IC50 for human MDA-MB-231 cells. The format is toxicity. The following applies: MCF10A cells versus MDA-MB-231 cells, read-out: Ratio IC50.
Data set [7] concerns the target T1, Signal transducer and activator of transcription 1-alpha/beta (Homo sapiens) (UniProt P42224).
T1 sequence (whole entry): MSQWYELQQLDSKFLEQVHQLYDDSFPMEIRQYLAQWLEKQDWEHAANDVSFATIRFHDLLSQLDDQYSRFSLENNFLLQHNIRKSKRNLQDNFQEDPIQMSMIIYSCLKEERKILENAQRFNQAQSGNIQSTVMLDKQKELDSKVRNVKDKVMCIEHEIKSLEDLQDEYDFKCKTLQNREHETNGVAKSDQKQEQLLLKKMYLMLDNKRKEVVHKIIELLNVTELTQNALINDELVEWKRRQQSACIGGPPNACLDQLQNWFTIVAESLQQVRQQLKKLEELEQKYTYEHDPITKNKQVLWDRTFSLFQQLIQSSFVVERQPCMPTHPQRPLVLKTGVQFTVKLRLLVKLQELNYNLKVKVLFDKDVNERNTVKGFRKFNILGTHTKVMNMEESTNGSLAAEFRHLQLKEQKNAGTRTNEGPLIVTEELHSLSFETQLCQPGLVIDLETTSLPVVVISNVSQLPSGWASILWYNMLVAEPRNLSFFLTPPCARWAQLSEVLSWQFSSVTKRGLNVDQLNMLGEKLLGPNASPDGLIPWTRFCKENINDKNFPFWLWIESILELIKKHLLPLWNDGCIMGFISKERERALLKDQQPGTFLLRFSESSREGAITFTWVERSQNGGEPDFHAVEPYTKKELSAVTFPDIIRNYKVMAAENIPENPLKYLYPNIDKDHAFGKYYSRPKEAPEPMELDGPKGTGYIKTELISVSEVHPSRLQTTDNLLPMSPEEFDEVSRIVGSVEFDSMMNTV
Description: Inhibition of STAT1 in human MDA-MB-231 cells assessed as decrease in STAT1 phosphorylation at Y701 residue at 4 uM incubated for 24 hrs by Western blot analysis. The format is cell-based.

The target in data set [8] is Mitogen-activated protein kinase; ERK1/ERK2 (Homo sapiens) (UniProt P27361+P28482). Description: Inhibition of ERK 1/2 in human MDA-MB-231 cells assessed as reduction in ERK 1/2 phosphorylation at 4 uM incubated for 24 hrs by Western blot analysis. The format is cell-based.
Chain of Mitogen-activated protein kinase; ERK1/ERK2 (Homo sapiens) (P27361 whole entry, looked up): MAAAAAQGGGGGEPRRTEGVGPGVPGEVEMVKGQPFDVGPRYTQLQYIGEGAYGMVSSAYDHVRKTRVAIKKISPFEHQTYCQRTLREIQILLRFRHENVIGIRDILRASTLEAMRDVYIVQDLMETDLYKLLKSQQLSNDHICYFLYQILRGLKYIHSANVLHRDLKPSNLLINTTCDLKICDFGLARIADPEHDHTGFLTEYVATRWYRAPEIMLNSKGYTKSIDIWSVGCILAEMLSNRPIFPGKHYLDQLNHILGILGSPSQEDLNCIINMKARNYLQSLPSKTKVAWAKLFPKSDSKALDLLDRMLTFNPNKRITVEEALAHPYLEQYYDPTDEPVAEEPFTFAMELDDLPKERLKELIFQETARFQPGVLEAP
Chain of Mitogen-activated protein kinase; ERK1/ERK2 (Homo sapiens) (P28482 whole entry, looked up): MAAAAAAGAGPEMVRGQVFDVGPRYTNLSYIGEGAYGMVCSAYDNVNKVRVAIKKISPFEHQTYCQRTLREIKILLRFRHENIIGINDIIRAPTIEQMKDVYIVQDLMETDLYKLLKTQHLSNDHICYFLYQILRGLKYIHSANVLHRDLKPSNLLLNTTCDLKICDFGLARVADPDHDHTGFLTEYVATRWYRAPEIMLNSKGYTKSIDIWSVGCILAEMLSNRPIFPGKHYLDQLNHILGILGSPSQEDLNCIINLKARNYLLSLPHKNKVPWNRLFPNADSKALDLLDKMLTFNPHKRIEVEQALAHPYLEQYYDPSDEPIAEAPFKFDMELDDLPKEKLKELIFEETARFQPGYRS
For a further data set, the system named is MCF-10A. Description: Cytotoxicity against human MCF10A cells assessed as reduction in cell viability incubated for 48 hrs by MTT assay. In kind it is cell-based.
In data set [9] the target is Tyrosine-protein kinase JAK2 (Homo sapiens) (UniProt O60674). Description: Inhibition of JAK2 in human MDA-MB-231 cells assessed as reduction in JAK2 phosphorylation at 4 uM incubated for 24 hrs by Western blot analysis. The format is cell-based.
Chain of Tyrosine-protein kinase JAK2 (Homo sapiens) (O60674 whole entry): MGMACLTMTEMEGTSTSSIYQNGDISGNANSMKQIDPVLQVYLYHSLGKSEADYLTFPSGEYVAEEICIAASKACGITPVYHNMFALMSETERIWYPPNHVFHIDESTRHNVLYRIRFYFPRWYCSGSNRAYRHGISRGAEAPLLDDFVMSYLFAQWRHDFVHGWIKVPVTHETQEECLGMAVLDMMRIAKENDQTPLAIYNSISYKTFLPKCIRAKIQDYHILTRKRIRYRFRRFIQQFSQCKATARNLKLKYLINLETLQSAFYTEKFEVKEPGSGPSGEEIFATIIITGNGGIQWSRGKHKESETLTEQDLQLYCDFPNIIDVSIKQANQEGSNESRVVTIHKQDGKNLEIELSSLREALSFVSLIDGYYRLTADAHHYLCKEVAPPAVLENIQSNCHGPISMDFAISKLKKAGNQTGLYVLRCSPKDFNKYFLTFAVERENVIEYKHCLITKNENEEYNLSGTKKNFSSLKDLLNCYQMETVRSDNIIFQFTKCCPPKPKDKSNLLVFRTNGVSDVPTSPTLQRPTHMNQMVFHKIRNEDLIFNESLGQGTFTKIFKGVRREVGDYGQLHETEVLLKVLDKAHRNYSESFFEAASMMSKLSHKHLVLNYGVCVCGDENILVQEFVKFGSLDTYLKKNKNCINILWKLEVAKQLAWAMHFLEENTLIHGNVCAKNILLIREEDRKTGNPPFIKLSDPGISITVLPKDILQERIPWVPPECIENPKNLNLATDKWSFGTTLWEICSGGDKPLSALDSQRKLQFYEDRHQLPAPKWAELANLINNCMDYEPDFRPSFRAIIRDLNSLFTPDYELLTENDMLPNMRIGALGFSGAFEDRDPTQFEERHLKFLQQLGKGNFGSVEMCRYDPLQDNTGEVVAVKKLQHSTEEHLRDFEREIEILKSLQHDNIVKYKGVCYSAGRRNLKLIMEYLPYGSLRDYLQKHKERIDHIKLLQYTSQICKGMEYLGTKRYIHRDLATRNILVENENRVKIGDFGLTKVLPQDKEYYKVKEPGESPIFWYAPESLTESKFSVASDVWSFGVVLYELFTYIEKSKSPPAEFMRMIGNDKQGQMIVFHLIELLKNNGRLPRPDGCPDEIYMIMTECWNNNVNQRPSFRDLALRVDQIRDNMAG
The target of data set [10] is Signal transducer and activator of transcription 3 (Homo sapiens) (UniProt P40763). Description: Inhibition of STAT3 in human MDA-MB-231 cells assessed as decrease in STAT3 phosphorylation at Tyr705 residue at 4 uM incubated for 24 hrs by Western blot analysis. In kind it is cell-based.
Chain of Signal transducer and activator of transcription 3 (Homo sapiens) (P40763 whole entry): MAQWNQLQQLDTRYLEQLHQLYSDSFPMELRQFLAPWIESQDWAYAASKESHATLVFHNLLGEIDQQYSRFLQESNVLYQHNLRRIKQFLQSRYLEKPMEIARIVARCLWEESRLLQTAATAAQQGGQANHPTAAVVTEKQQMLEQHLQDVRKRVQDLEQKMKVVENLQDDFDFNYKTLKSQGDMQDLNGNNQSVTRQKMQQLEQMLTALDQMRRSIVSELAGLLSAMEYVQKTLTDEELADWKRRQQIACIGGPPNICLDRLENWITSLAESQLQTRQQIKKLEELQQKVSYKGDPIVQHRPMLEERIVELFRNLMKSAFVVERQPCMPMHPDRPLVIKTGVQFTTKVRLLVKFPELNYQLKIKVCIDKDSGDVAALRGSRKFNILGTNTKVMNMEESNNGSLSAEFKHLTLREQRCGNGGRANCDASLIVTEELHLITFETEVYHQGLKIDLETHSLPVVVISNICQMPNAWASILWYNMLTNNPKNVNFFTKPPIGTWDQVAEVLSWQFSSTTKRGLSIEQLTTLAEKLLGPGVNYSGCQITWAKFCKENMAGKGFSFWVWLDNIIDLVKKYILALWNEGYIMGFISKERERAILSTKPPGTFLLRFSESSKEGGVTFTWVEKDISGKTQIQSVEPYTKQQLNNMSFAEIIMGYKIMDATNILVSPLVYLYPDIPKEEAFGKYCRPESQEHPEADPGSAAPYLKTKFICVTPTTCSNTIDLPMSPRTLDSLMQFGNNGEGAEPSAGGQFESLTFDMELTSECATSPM
In data set [11] the target is Proto-oncogene tyrosine-protein kinase Src (Homo sapiens) (UniProt P12931). Description: Inhibition of Src in human MDA-MB-231 cells assessed as reduction in Src phosphorylation at 4 uM incubated for 24 hrs by Western blot analysis. The format is cell-based.
Chain of Proto-oncogene tyrosine-protein kinase Src (Homo sapiens) (P12931 2-536 limits assumed): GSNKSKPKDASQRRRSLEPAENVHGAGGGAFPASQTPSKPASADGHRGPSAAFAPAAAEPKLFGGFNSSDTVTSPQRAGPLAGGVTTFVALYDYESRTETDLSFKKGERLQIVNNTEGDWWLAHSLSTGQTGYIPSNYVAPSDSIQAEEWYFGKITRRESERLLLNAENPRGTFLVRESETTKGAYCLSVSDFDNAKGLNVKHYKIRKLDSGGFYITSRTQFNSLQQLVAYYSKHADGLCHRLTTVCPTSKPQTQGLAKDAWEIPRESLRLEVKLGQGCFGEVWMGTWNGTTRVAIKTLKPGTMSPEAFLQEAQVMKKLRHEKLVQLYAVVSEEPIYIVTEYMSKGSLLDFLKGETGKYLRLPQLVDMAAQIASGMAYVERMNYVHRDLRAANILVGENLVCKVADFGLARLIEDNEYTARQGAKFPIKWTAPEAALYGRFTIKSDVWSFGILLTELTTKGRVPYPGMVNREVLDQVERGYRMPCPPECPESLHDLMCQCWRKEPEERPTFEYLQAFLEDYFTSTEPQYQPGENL
Data set [12] concerns MDA-MB-231. Description: Induction of apoptosis in human MDA-MB-231 cells assessed as increase in cleaved caspase-9 levels at 4 uM incubated for 24 hrs by Western blot analysis. The format is functional, cell-based.

For orientation: pIC50 means the IC50 on a negative log10 scale, so that one unit is a factor of ten. For `CCN(CC)c1ccc2cc(C(=O)N3CCN(C(=O)C4=Cc5c(F)cccc5S4(=O)=O)CC3)c(=O)oc2c1`, the pIC50 in the data set on MDA-MB-231 [1] is 5.67; with MCF7, 5.39; with HCT-116 it was 5.63; in the data set with HepG2, 5.48.
The like results for `CCN(CC)c1ccc2cc(C(=O)N3CCN(C(=O)C4=Cc5ccc(F)cc5S4(=O)=O)CC3)c(=O)oc2c1` were, in that order, 5.49, 5.20, 5.37 and 5.31.
For `CCN(CC)c1ccc2cc(C(=O)N3CCN(C(=O)C4=Cc5ccc(OC)cc5S4(=O)=O)CC3)c(=O)oc2c1` the same measures were 5.72, 5.64, 5.64 and 5.38.
For `CCN(CC)c1ccc2cc(C(=O)N3CCN(C(=O)C4=Cc5c([N+](=O)[O-])cccc5S4(=O)=O)CC3)c(=O)oc2c1` the same measures were 5.46, 5.36, 5.49 and 5.31.
Regarding `CCN(CC)c1ccc2cc(C(=O)N3CCN(C(=O)C4=Cc5cccc(Br)c5S4(=O)=O)CC3)c(=O)oc2c1`, the pIC50 with MDA-MB-231 [1] was 5.63; in the data set with MCF7, 5.49; with HCT-116, 5.53; in the data set on HepG2, 5.32.
For `CCN(CC)c1ccc2cc(C(=O)N3CCN(C(=O)C4=Cc5ccc(Br)cc5S4(=O)=O)CC3)c(=O)oc2c1` the same measures were 5.56, 5.30, 5.55 and 5.26.
As to `CCN(CC)c1ccc2cc(C(=O)N3CCN(C(=O)C4=Cc5cc(Br)ccc5S4(=O)=O)CC3)c(=O)oc2c1`, the pIC50 in the data set on MDA-MB-231 [1] was 5.65; with MCF7 it was 5.41; in the data set with HCT-116, 5.42; in the data set on HepG2, 5.29.
The like results for `CCN(CC)c1ccc2cc(C(=O)N3CCN(C(=O)C4=Cc5cc(Cl)ccc5S4(=O)=O)CC3)c(=O)oc2c1` were, in that order, 5.63, 5.36, 5.39 and 5.26.
For `CCN(CC)c1ccc2cc(C(=O)N3CCN(C(=O)C4=Cc5cc([N+](=O)[O-])ccc5S4(=O)=O)CC3)c(=O)oc2c1` the same measures were 5.31, 5.20, 5.17 and 5.13.
The like results for `CCN(CC)c1ccc2cc(C(=O)N3CCN(C(=O)C4=Cc5c(OC)cccc5S4(=O)=O)CC3)c(=O)oc2c1` were, in that order, 5.74, 5.40, 5.69 and 5.53.
For `O=S1(=O)C=Cc2ccccc21`, the negative-log IC50 (pIC50) with MDA-MB-231 [1] is 4.56; in the data set on MCF7, 4.82; in the data set with HCT-116, 5.03; with HepG2, 4.64.
For `CCN(CC)c1ccc2cc(C(=O)N3CCN(C(=O)C4=Cc5c(Cl)cccc5S4(=O)=O)CC3)c(=O)oc2c1` the same measures were 5.65, 5.35, 5.80 and 5.35.
For `CCN(CC)c1ccc2cc(C(=O)N3CCN(C(=O)C4=Cc5ccc(Cl)cc5S4(=O)=O)CC3)c(=O)oc2c1` the same measures were 5.69, 5.28, 5.35 and 5.28.
As for `O=[N+]([O-])c1ccc2c(c1)S(=O)(=O)C=C2`, the result with MDA-MB-231 [2], in the data set on MDA-MB-231 [4] and in the data set on MDA-MB-231 [12] was Active. The pIC50 is 5.74 in the data set on MDA-MB-231 [1]; 5.28 in the data set with L02; 5.43 in the data set on MCF7; 5.21 in the data set on MCF-10A; 5.67 in the data set with HCT-116; 5.45 with HepG2. Moreover, the inhibition result in [3] and in data set [10] was “Active” throughout. Further, the selectivity ratio in data set [5] is 1.5; in data set [6], 3.4. Moreover, the inhibition entry in [7], in data set [8], in data set [9] and in data set [11] was “inactive” throughout.
`CCN(CC)c1ccc2cc(C(=O)N3CCN(C(=O)C4=Cc5ccccc5S4(=O)=O)CC3)c(=O)oc2c1`: the pIC50 in the data set with MDA-MB-231 [1] was 5.63; in the data set on MCF7 it was 5.52; in the data set on HCT-116, 5.42; in the data set with HepG2 it was 5.37.
The like results for `CCN(CC)c1ccc2cc(C(=O)N3CCN(C(=O)C4=Cc5ccc([N+](=O)[O-])cc5S4(=O)=O)CC3)c(=O)oc2c1` were, in that order, 5.28, 5.17, 5.31 and 5.15.
